Experimental data as given in patent US7253281B2, “Anti-obesity 1,2,3,4,10,10a-hexahydropyrazino[1,2-a]indoles” (Hoffmann-La Roche Inc., priority 2000, dated 2007).
Blank lines part the entries; values can stand above or below the compound they belong to.

How the values were obtained:
[1] = target: T1, 5-HT2C receptors in a CHO cell line (Homo sapiens, UniProt P28335); assay: Binding to 5-HT2C receptor, [3H]-5-HT, Method (a); conditions: read-out: Ki (2C)
T1 construct: expressed in transfected cells; host or cells: CHO cell line
T1 sequence (P28335 33-458): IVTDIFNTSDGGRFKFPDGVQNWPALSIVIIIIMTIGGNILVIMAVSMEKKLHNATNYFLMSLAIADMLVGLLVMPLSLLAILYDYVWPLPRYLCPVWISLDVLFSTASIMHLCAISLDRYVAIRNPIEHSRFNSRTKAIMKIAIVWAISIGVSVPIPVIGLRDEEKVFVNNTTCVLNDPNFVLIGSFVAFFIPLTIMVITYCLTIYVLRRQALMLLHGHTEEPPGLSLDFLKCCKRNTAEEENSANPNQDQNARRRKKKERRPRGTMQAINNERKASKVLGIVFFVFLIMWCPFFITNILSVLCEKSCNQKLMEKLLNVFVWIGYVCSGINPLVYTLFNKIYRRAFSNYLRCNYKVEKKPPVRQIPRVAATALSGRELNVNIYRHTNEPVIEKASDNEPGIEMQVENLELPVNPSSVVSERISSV
Method: (§1) The binding of compounds of formula (I) to serotonin receptors was determined in vitro by standard methods. The preparations were investigated in accordance with the assays given hereinafter.
Method (a): For the binding to the 5-HT2C receptor the 5-HT2C receptors were radiolabeled with [^3H]-5-HT. The affinity of the compounds for 5-HT2C receptors in a CHO cell line was determined according to the procedure of D. Hoyer, G. Engel and H. O. Kalkman, European J. Pharmacol., 1985, 118, 13–23.

[2] = target: T2, human 5-HT2B receptors in a CHO cell line (Homo sapiens, UniProt P41595); assay: Binding to 5-HT2B receptor, [3H]-5-HT, Method (b); conditions: read-out: Ki (2B)
T2 construct: expressed in transfected cells; host or cells: CHO cell line
T2 sequence (P41595 whole entry): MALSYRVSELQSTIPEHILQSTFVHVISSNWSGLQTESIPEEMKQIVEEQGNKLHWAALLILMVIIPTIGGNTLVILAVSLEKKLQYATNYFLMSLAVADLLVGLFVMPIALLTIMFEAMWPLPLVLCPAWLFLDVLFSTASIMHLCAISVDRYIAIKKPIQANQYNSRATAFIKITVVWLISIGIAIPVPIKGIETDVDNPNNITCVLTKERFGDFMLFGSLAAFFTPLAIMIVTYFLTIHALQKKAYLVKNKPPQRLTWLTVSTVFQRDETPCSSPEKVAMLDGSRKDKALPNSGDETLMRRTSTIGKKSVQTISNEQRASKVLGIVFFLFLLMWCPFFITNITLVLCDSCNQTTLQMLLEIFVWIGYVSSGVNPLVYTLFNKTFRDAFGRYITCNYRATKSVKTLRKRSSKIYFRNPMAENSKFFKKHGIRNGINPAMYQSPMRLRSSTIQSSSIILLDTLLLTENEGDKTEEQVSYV
Method: as §1
Method (b): For the binding to the 5-HT2B receptor the 5-HT2B receptors were radiolabeled with [^3H]-5-HT. The affinity of the compounds for human 5-HT2B receptors in a CHO cell line was determined according to the procedure of K. Schmuck, C. Ullmer, P. Engels and H. Lubbert, FEBS Lett., 1994, 342, 85–90.

[3] = target: T3, 5-HT2A receptors in a CHO cell line (Homo sapiens, UniProt P28223); assay: Binding to 5-HT2A receptor, [125I]-DOI, Method (c); conditions: read-out: Ki (2A)
T3 construct: expressed in transfected cells; host or cells: CHO cell line
T3 sequence (P28223 whole entry): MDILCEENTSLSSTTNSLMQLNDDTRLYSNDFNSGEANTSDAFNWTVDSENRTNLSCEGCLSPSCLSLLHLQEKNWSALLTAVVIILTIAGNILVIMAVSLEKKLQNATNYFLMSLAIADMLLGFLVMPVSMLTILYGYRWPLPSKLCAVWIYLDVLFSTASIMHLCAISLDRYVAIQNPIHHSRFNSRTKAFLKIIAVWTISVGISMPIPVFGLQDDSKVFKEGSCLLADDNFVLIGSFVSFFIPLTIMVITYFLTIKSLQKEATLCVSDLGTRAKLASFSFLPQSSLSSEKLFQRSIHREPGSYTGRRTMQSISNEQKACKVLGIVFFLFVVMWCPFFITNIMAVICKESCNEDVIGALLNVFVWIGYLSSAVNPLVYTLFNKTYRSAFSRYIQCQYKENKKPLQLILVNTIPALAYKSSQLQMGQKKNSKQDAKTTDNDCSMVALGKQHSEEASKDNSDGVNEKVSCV
Method: as §1
Method (c): For the binding to the 5-HT2A receptor the 5-HT2A receptors were radiolabeled with [^125I]-DOI. The affinity of the compounds for 5-HT2A receptors in a CHO cell line was determined according to the procedure of D. J. McKenna and S. J. Peroutka, J. Neurosci., 1989, 9, 3482–90.

[4] = target: T4, human 5-HT2C receptor (CHO cells) (Homo sapiens, UniProt P28335); assay: Functional activity, FLIPR calcium assay, h5-HT2C; type: cell-based
T4 construct: expressed in transfected cells; host or cells: CHO cells
T4 sequence (P28335 33-458): T1 sequence (P28335 33-458)
Method: (§2) The functional activity of compounds of formula (I) was assayed using a Fluorimetric Imaging Plate reader (FLIPR). CHO cells expressing the human 5-HT2C or human 5-HT2A receptors were counted and plated into standard 96 well microtitre plates on the day before testing to give a confluent monolayer. The cells were then dye loaded with the calcium sensitive dye, Fluo-3-AM. Unincorporated dye was removed using an automated cell washer to leave a total volume of 100 μL/well of assay buffer (Hanks balanced salt solution containing 20 mM Hepes and 2.5 mM probenecid). The drug (dissolved in 50 μL of the assay buffer) was added at a rate of 70 μL/sec to each well of the FLIPR 96 well plate during fluorescence measurements. The measurements were taken at 1 sec intervals and the maximum fluorescent signal was measured (approx 10–15 secs after drug addition) and compared with the response produced by 10 μM 5-HT (defined as 100%) to which it was expressed as a percentage response (relative efficacy). Dose response curves were constructed using Graphpad Prism (Graph Software Inc.).

[5] = target: T5, human 5-HT2A receptor (CHO cells) (Homo sapiens, UniProt P28223); assay: Functional activity, FLIPR calcium assay, h5-HT2A; type: cell-based
T5 construct: expressed in transfected cells; host or cells: CHO cells
T5 sequence (P28223 whole entry): as above
Method: as §2

h5-HT2B = h5-HT2B (Homo sapiens, UniProt P41595); assay: Functional activity, FLIPR calcium assay, h5-HT2B; type: cell-based
Sequence of h5-HT2B (P41595 whole entry): as the sequence (P41595 whole entry) above

[6] = relative to response of 10 μM 5-HT (100%)

SMILES: CC(=O)Nc1ccc2c(c1)N1[C@@H](CNC[C@H]1C)C2.Cl
- melting point: > 250 °C (dec.)

SMILES: C[C@@H]1CNC[C@H]2Cc3ccc(CO)cc3N21.Cl
- melting point: 66 °C (dec.)

SMILES: CCCCNC(=O)c1ccc2c(c1)N1[C@@H](CNC[C@H]1C)C2.Cl
- melting point: 125 °C (dec.)

SMILES: O=C1OCCN1CN1CCN2c3cccc(Br)c3C[C@@H]2C1 [Example 3, (10aR)-3-(9-Bromo-3,4,10,10a-tetrahydro-1H-pyrazino[1,2-a]indol-2-ylmethyl)-oxazolidin-2-one]
- Ki [1]: 0.026 µM
- Ki [2]: 0.11 µM
- Ki [3]: 0.23 µM

SMILES: C[C@@H]1CNC[C@H]2Cc3ccc(Cl)cc3N21 [Example 8, (4R,10aR)-7-Chloro-4-methyl-1,2,3,4,10,10a-hexahydro-pyrazino[1,2-a]indole]
- EC50 ([4]; FLIPR, CHO cells): 0.0004 µM
- h5-HT2c Relative Efficacy (%) [4, 6]: 97%
- EC50 ([5]; FLIPR, CHO cells): 0.019 µM
- h5-HT2A Relative Efficacy (%) [5, 6]: 60%
- EC50 (h5-HT2B; FLIPR): 0.0034 µM
- h5-HT2B Relative Efficacy (%) (h5-HT2B; [6]): 62%

Results, then the compound that gave them:

- melting point: 221 to 224 °C
SMILES: C[C@@H]1CNC[C@H]2Cc3ccc(C(F)(F)F)cc3N21.Cl

- melting point: 245 to 250 °C (dec.)
SMILES: C[C@@H]1CNC[C@@H]2Cc3ccc(C(F)(F)F)cc3N21.Cl

- melting point: 200 to 205 °C
SMILES: Cc1cc2c(cc1C(F)(F)F)N1[C@H](CNC[C@H]1C)C2.Cl
